From paper PMC9671100 (RSC Advances, 2022)
Values joined by “and” are separate entries in the source; they are usually repeats but may differ in a detail not shown here. Equal values may be shown once.

Experiments:
[1] = target: AChE (from Electrophorus electricus) (Electrophorus electricus, UniProt O42275); assay: Anticholinesterase assay; assay type: biochemical
BChE (from equine serum) = BChE (from equine serum) (Equus caballus, UniProt P81908); assay: Anticholinesterase assay; assay type: biochemical; conditions: for IC50: BChE IC50, IC50 ± SEM, Ellman method, 30 min incubation, triplicate
Sequence of BChE (from equine serum) (P81908 whole entry): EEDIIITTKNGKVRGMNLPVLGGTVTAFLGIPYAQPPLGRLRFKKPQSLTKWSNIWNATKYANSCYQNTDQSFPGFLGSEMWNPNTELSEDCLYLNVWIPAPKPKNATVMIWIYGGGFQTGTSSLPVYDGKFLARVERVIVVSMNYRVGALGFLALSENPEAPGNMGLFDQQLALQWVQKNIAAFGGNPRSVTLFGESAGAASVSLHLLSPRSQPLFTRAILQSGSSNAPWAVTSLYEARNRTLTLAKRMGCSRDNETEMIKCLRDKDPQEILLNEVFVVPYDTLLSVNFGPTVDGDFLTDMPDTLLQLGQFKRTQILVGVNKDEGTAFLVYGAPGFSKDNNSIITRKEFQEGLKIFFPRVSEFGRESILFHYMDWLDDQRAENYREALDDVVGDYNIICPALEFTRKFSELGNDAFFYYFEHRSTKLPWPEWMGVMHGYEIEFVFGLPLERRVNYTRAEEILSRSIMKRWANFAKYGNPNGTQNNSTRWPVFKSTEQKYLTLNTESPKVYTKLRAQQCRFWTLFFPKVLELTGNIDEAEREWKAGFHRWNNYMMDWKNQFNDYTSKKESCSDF

[2] = DPPH radical scavenging activity; conditions: 517 nm, 5 min at room temperature
[3] = ABTS radical scavenging activity; conditions: for ABTS EC50: 732 nm, 6 min; for Fold = IC50 of ascorbic acid/IC50 of compounds 5a–p: ratio of the ABTS values relative to ascorbic acid

Sequence of AChE (from Electrophorus electricus) (O42275 24-633): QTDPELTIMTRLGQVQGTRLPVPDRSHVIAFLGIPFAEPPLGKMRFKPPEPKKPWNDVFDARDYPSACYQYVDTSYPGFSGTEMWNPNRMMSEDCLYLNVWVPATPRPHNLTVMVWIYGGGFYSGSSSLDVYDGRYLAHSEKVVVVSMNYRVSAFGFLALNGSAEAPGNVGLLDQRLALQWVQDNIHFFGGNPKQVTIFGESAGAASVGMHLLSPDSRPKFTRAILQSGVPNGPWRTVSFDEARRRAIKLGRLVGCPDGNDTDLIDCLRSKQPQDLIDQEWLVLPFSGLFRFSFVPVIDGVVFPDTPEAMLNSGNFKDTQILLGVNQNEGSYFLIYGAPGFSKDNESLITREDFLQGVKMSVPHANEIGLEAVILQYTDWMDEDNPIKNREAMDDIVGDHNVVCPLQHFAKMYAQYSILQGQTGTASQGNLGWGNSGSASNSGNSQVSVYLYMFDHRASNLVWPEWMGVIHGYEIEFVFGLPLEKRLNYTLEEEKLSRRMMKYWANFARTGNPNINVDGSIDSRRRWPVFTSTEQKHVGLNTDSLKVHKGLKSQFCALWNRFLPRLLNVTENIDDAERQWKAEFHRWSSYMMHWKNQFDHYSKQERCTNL

SMILES | IC50 [1] | IC50 (BChE (from equine serum)) | DPPH EC50 [2] | ABTS EC50 [3] | Fold = IC50 of ascorbic acid/IC50 of compounds 5a–p [3] | times less potent than galantamine against BChE (BChE (from equine serum); IC50 ratio versus galantamine)
COc1cc(-c2c(C#N)c(N)nc3c2CCc2nc4c(cc2-3)c(C)nn4-c2ccccc2)cc(OC)c1OC [5j, 2-Amino-10-methyl-8-phenyl-4-(3,4,5-trimethoxyphenyl)-6,8-dihydro-5H-pyrazolo[3,4-j][1,7]phenanthroline-3-carbonitrile] | 224.54 ± 0.018 µM | ≥ 375 µM | >100 µg/mL | >100 µg/mL |  | 
Cc1nn(-c2ccccc2)c2nc3c(cc12)-c1nc(N)c(C#N)c(-c2ccc([N+](=O)[O-])cc2)c1CC3 [5e, 2-Amino-10-methyl-4-(4-nitrophenyl)-8-phenyl-6,8-dihydro-5H-pyrazolo[3,4-j][1,7]phenanthroline-3-carbonitrile] | 191.28 ± 0.015 µM | ≥ 375 µM | 26.71 µg/mL | 11.51 µg/mL | 2 and 2.40 | 
CCOc1nc2c(c(-c3ccccc3)c1C#N)CCc1nc3c(cc1-2)c(C)nn3-c1ccccc1 [5p, 2-Ethoxy-10-methyl-4,8-diphenyl-6,8-dihydro-5H-pyrazolo[3,4-j][1,7]phenanthroline-3-carbonitrile] | 329.67 ± 0.01 µM | ≥ 375 µM | >100 µg/mL | >100 µg/mL |  | 
Cc1nn(-c2ccccc2)c2nc3c(cc12)-c1nc(N)c(C#N)c(-c2ccc(C#N)cc2)c1CC3 [5h, 2-Amino-4-(4-cyanophenyl)-10-methyl-8-phenyl-6,8-dihydro-5H-pyrazolo[3,4-j][1,7]phenanthroline-3-carbonitrile] | 85.48 ± 0.14 µM | ≥ 375 µM | >100 µg/mL | >100 µg/mL |  | 
O=C1O[C@H]([C@@H](O)CO)C(O)=C1O [Ascorbic acid, reference compound] |  |  | 1.5 ± 0.2 µg/mL | 27.62 ± 3.5 µg/mL | 1 | 
Cc1nn(-c2ccccc2)c2nc3c(cc12)-c1nc(N)c(C#N)c(-c2ccc(Cl)cc2)c1CC3 [5d, 2-Amino-4-(4-chlorophenyl)-10-methyl-8-phenyl-6,8-dihydro-5H-pyrazolo[3,4-j][1,7]phenanthroline-3-carbonitrile] |  | > 810 µM | >100 µg/mL | >100 µg/mL |  | 
Cc1nn(-c2ccccc2)c2nc3c(cc12)-c1nc(N)c(C#N)c(-c2ccc4c(c2)OCO4)c1CC3 [5l, 2-Amino-4-(benzo[d][1,3]dioxol-5-yl)-10-methyl-8-phenyl-6,8-dihydro-5H-pyrazolo[3,4-j][1,7]phenanthroline-3-carbonitrile] | 167.94 ± 0.04 µM | 119 µM | >100 µg/mL | >100 µg/mL |  | 15
Cc1ccc(-c2c(C#N)c(N)nc3c2CCc2nc4c(cc2-3)c(C)nn4-c2ccccc2)cc1 [5b, 2-Amino-10-methyl-8-phenyl-4-(p-tolyl)-6,8-dihydro-5H-pyrazolo[3,4-j][1,7]phenanthroline-3-carbonitrile] |  | > 847 µM | >100 µg/mL | 98.77 µg/mL | 0.28 | 
Cc1nn(-c2ccccc2)c2nc3c(cc12)-c1nc(N)c(C#N)c(-c2ccc(O)cc2)c1CC3 [5g, 2-Amino-4-(4-hydroxyphenyl)-10-methyl-8-phenyl-6,8-dihydro-5H-pyrazolo[3,4-j][1,7]phenanthroline-3-carbonitrile] |  |  | >100 µg/mL | <3 µg/mL | more than nine times | 
Cc1nn(-c2ccccc2)c2nc3c(cc12)-c1nc(N)c(C#N)c(-c2ccccc2)c1CC3 [5a, 2-Amino-10-methyl-4,8-diphenyl-6,8-dihydro-5H-pyrazolo[3,4-j][1,7]phenanthroline-3-carbonitrile] | 259.87 ± 0.03 µM | > 875 µM | >100 µg/mL | >100 µg/mL |  | 
Cc1nn(-c2ccccc2)c2nc3c(cc12)-c1nc(N)c(C#N)c(-c2cc4ccccc4nc2Cl)c1CC3 [5f, 2-Amino-4-(2-chloroquinolin-3-yl)-10-methyl-8-phenyl-6,8-dihydro-5H-pyrazolo[3,4-j][1,7]phenanthroline-3-carbonitrile] | 135.33 ± 0.04 µM | ≥ 375 µM | >100 µg/mL | 3.10 µg/mL | 9 and 8.91 | 
